Consider 2 compounds from US7524887B2, “2-amino-1,3-propanediol compounds for the treatment of acute pain” (Sanofi-Aventis Deutschland GmbH, priority 2003, dated 2009).

Assay [1] concerns Sprague Dawley rats (formalin model of acute pain). Briefly: Formalin test after interperitoneal injection of compound 1. The settings on record: for Mean flinches in 5 min interval: 1 mg/kg interperitoneally in PEG 3 hours prior to formalin, n = 5 rats. It counts as in vivo, rat. As for the experimental part: Animals: Male Sprague Dawley rats weighing 300-350 g were purchased from Charles River Wiga GmbH (Sulzfeld, Germany). The animals had free access to food and water prior to the experiments. They were maintained in climate- and light-controlled rooms (24+0.5° C.). Each animal was used at one occasion only. In all experiments the ethics guidelines for investigations in conscious animals were obeyed and the procedures were approved by the local Ethics Committee. Formalin test: The formalin assay was performed in a dedicated room with restriction on sound level and activity. 2-amino-2-[2-(4-octylphenyl)ethyl]-1,3-propanediol hydrochloride (compound 1) was dissolved in polyethylene-glycol (PEG) at a concentration of 1 mg/ml and injected interperitoneally (1 mg/kg) 3 hours prior to the formalin tests were performed with compound 1. 50 μl of a 5% formaldehyde solution was injected subcutaneously (s.c.) into the dorsal surface of one hind paw. Rats were placed into a plexiglas chamber surrounded by mirrors to allow an unobstructed view of the paws. Flinches were counted in one-minute intervals up to 60 min starting right after formalin injection. Flinches of 5 min intervals were summarized as mean flinches per minute +SEM. Statistical analysis was performed using the student's t-test (*p<0.04).

Assay [2] has the same test system. Put plainly: Formalin test after intrathecal application of S1P. It counts as in vivo, rat. The settings on record: for Mean flinches in 5 min interval: 20 μl of 10 μM S1P intrathecal 15 min prior to formalin, mean of six animals. As for the experimental part: The analgesic effect of sphingosine-1-phosphate (S1P) was determined by intrathecal application to the spinal cord by:
Wild type Sprague Dawley rats were purchased from Charles River Wiga GmbH (Sulzfeld, Germany). The animals had free access to food and water prior to the experiments. They were maintained in climate- and light-controlled rooms (24+0.5° C.). Each animal was used at one occasion only. In all experiments the ethics guidelines for investigations in conscious animals were obeyed, and the procedures were approved by the local Ethics Committee.
Rats were anesthetized with ketamine (60 mg/kg i.p.) and midazolam (0.5 to 1 mg/kg i.p.). The skin was incised above the vertebral column from vertebrae Th13 up to L3. Muscle tissue around L2-3 was cleared away. The processus spinosus of L3 was removed and a laminectomy was done at L2. Polyethylene catheters (ID 0.28 mm, OD 0.61 mm) were then inserted into the peridural space so that the tip of the catheter reached Th9-10. The catheter was fixed with cyanacrylate glue and was externalized in the neck region and the skin was sutured.
Three days after surgery rats were placed into a “freely moving system” (CMA, Stockholm, Sweden) 20 μl of 10 μM S1P, purchased from Tocris (Ellisville, Mo.), were infused through the catheter.
Within 15 min after stopping the infusion the formalin test was performed. 50 μL of a 5% formaldehyde solution were injected subcutaneously (s. c.) into the dorsal surface of one hind paw. Flinches were counted in one-minute intervals up to 60 min starting right after formalin injection. Flinches of 5 min intervals were summarized as mean flinches per minute. To compare the nociceptive behavior between groups the sum of flinches during the one-hour observation period were submitted to the Students t-test.
S1P was dissolved in DMSO to a final concentration of 2.5 mM and then diluted 1:250 in PBS. 20 μl of 10 μM S1P or 20 μl 0.1 M phosphate buffered saline, pH 7.2 (PBS,) in DMSO were given to adult rats by intrathecal application 15 minutes prior to the formalin injection. Then, flinches were counted in 5 minutes intervals over a period of 60 minutes.

In the case of `CCCCCCCCc1ccc(CCC(N)(CO)CO)cc1.Cl` [Compound 1, 2-amino-2-[2-(4-octylphenyl)ethyl]-1,3-propanediol hydrochloride], the “Number of nociceptive responses for phase 2A compared to the control animals” value in assay [1] (phase 2A = 20 to 35 minutes after formalin injection, 1 mg/kg interperitoneally, student's t-test) is recorded as “significant decrease”. In addition, the “Mean flinches in 5 min interval” value came out at 85.4 in assay [1] (time 5 min after formalin); 41.2 in assay [1] (time 10 min after formalin); 33.6 in assay [1] (time 15 min after formalin); 29.6 in assay [1] (time 20 min after formalin); 31.6 in assay [1] (time 25 min after formalin); 51.4 in assay [1] (time 30 min after formalin). The “Mean flinches in 5 min interval” value is 49.2 in assay [1] (time 35 min after formalin); 48.0 in assay [1] (time 40 min after formalin); 48.6 in assay [1] (time 45 min after formalin); 39.8 in assay [1] (time 50 min after formalin); 42.6 in assay [1] (time 55 min after formalin); 42.2 in assay [1] (time 60 min after formalin).
On to `CCCCCCCCCCCCC/C=C/[C@@H](O)[C@@H](N)COP(=O)(O)O` [Compound S1P, sphingosine-1-phosphate], for which the “Number of nociceptive responses for phase 2A compared to PBS/DMSO-treated animals” value in assay [2] (phase 2A = 20 to 35 minutes after formalin injection, 20 μl of 10 μM S1P intrathecal) is given as “significant decrease”. For the same compound, the “Mean flinches in 5 min interval” value in assay [2] (time 5 min after formalin) amounted to 60.9; in assay [2] (time 10 min after formalin) it was 24.6; in assay [2] (time 15 min after formalin), 12.7; in assay [2] (time 20 min after formalin) it was 17.1; in assay [2] (time 25 min after formalin), 19.6; in assay [2] (time 30 min after formalin) it was 24.7. For the same compound, the “Mean flinches in 5 min interval” value is given as 31.4 in assay [2] (time 35 min after formalin); 41.9 in assay [2] (time 40 min after formalin); 49.3 in assay [2] (time 45 min after formalin); 41.3 in assay [2] (time 50 min after formalin); 49.0 in assay [2] (time 55 min after formalin); 38.0 in assay [2] (time 60 min after formalin).
